Source: patent US20080045514A1 (Cytovia, Inc., priority 2006, published 2008)
Read-outs that look alike come from different tables or passages of the source.

Experiments:
Format in all cases: cell-based
[1] = test system: human colon carcinoma cell line HCT116; assay: Inhibition of cell proliferation (GI50), HCT116; conditions: HCT 116 cells, 48 h, CellTiter-Glo
Experimental: (§1) Human breast cancer cell lines T-47D, human hepatocellular carcinoma cell line SNU398, human colon carcinoma cell line HCT116, human lung cancer cell line H1299, human leukemia cell line K562, human lymphoma cell line Raji, human B cell lymphoblastoid cell line Ramos, and human Burkitt's lymphoma cell line Namalwa were grown and harvested as in Example 100. An aliquot of […] of cells (4.4×10^4 cells/mL) was added to a well of a 96-well microtiter plate containing 5 μL of a 10% DMSO in RPMI-1640 media solution containing 10 nM to 100 μM of 3-(2-chlorophenyl)-6-(3,4-methylenedioxyphenyl)-7H-[1,2,4]triazolo[3,4-b][1,3,4]thiadiazine (1 nM to 10 μM final). An aliquot of 45 μL of cells was added to a well of a 96-well microtiter plate containing 5 μL of a 10% DMSO in RPMI-1640 media solution without compound as the control sample for maximal cell proliferation (LMax). The samples were mixed by agitation and then incubated at 37° C. for 48 h in a 5% CO2-95% humidity incubator. After incubation, the samples were removed from the incubator and 25 μL of CellTiter-Glo™ reagent (Promega) was added. The samples were mixed by agitation and incubated at room temperature for 10-15 min. Plates were then read using a luminescent plate reader (Model SPECTRAfluor Plus, Tecan) to give Ltest values.
(§2) The samples were mixed by agitation and then incubated at 37° C. for 0.5 h in a 5% CO2-95% humidity incubator. After incubation, the samples were removed from the incubator and 25 μL of CellTiter-Glo™ reagent (Promega) was added. The samples were mixed by agitation and incubated at […] 10-15 min at room temperature in a 5% CO2-95% humidity incubator. Fluorescence was read as above, (LStart) defining luminescence for initial cell number used as baseline in GI50 determinations.
(§3) Calculation: GI50 (dose for 50% inhibition of cell proliferation) is the concentration where [(Ltest−LStart)/(LMax−LStart)]=0.5.

[2] = test system: human hepatocellular carcinoma cell line SNU398; assay: Inhibition of cell proliferation (GI50), SNU398; conditions: SNU 398 cells, 48 h, CellTiter-Glo
Experimental: as §1, §2, §3

[3] = test system: human breast cancer cell line T-47D; assay: Caspase cascade activation (EC50), T-47D; conditions: T47D cells, caspase cascade activation, read-out: caspase potency (EC50) T47D
Method in brief: (§4)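 Test compound (0.016–10 μM final) is incubated with cells for 48 h at 37 °C. Caspase-3-like activity is measured by 3 h room-temperature cleavage of DEVD-R110 in PIPES pH 7.2 lysis buffer, with EC50 from sigmoidal fitting of background-corrected RFU relative to control.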

[4] = test system: human breast cancer cell line T-47D; assay: Inhibition of cell proliferation (GI50), T47D; conditions: T47D cells, 48 h, CellTiter-Glo
Experimental: as §1, §2, §3

[5] = test system: human Burkitt's lymphoma cell line Namalwa; assay: Caspase cascade activation (EC50), Namalwa; conditions: Homo sapiens, Burkitts lymphoma cell; Namalwa cells; caspase cascade activation; read-out: caspase potency (EC50) Namalwa
Method in brief: as §4

[6] = test system: human B cell lymphoblastoid cell line Ramos; assay: Inhibition of cell proliferation (GI50), Ramos; conditions: Homo sapiens; Ramos cells, 48 h, CellTiter-Glo
Experimental: as §1, §2, §3

[7] = test system: human colon carcinoma cell line HCT116; assay: Caspase cascade activation (EC50), HCT116; conditions: Homo sapiens, HCT-116; HCT116 cells; caspase cascade activation; read-out: caspase potency (EC50) HCT116
Method in brief: as §4

[8] = test system: human B cell lymphoblastoid cell line Ramos; assay: Caspase cascade activation (EC50), Ramos; conditions: Homo sapiens, RAMOS cells, read-out: caspase potency (EC50) RAMOS
Method in brief: as §4

[9] = test system: human Burkitt's lymphoma cell line Namalwa; assay: Inhibition of cell proliferation (GI50), Namalwa; conditions: Homo sapiens, Burkitts lymphoma cell; Namalwa cells, 48 h, CellTiter-Glo
Experimental: as §1, §2, §3

[10] = test system: human cancer cell line H1299; assay: Caspase cascade activation (EC50), H1299; conditions: NCI-H1299, H1299 cells, read-out: caspase potency (EC50) H1299
Experimental: Human breast cancer cell lines T-47D, human hepatocellular carcinoma cell line SNU398, human colon carcinoma cell line HCT116, human cancer cell line H1299, human Burkitt's lymphoma cell line Namalwa, human lymphoma cell line Raji, and human B cell lymphoblastoid cell line Ramos were grown according to media component mixtures designated by American Type Culture Collection+10% FCS (Invitrogen Corporation), in a 5% CO2-95% humidity incubator at 37° C. T-47D and H1299 cells were maintained at a cell density between 50 and 80% confluency at a cell density of 0.1 to 0.6×10^6 cells/mL. Cells were harvested at 600×g and resuspended at 0.65×10^6 cells/mL into appropriate media+10% FCS. An aliquot of 22.5 μL of cells was added to a well of a 384-well microtiter plate containing 2.5 μL of a 10% DMSO in RPMI-1640 media solution containing 0.16 to 100 μM of 3-(2-chlorophenyl)-6-(3,4-methylenedioxyphenyl)-7H-[1,2,4]triazolo[3,4-b][1,3,4]thiadiazine or other test compound (0.016 to 10 μM final). An aliquot of 22.5 μL of cells was added to a well of a 384-well microtiter plate containing 2.5 μL of a 10% DMSO in RPMI-1640 media solution without test compound as the control sample. The samples were mixed by agitation and then incubated at 37° C. for 48 h in a 5% CO2-95% humidity incubator. After incubation, the samples were removed from the incubator and 25 μL of a solution containing 14 μM of N—(Ac-DEVD)-N′-ethoxycarbonyl-R110 (SEQ ID No.:1) fluorogenic substrate (Cytovia, Inc.; WO99/18856), 20% sucrose (Sigma), 20 mM DTT (Sigma), 200 mM NaCl (Sigma), 40 mM Na PIPES buffer pH 7.2 (Sigma), and 500 μg/mL lysolecithin (Calbiochem) was added. The samples were mixed by agitation and incubated at room temperature. Using a fluorescent plate reader (Model SPECTRAfluor Plus, Tecan), an initial reading (T=0) was made approximately 1-2 min after addition of the substrate solution, employing excitation at 485 nm and emission at 530 nm, to determine the background fluorescence of the control sample. After the 3 h incubation, the samples were read for fluorescence as above (T=3 h). Calculation: The Relative Fluorescence Unit values (RFU) were used to calculate the sample readings as follows: RFU(T=3H)−Control RFU(T=0)=Net RFU(T=3h) The activity of caspase cascade activation was determined by the ratio of the net RFU value for 3-(2-chlorophenyl)-6-(3,4-methylenedioxyphenyl)-7H-[1,2,4]triazolo[3,4-b][1,3,4]thiadiazine (Example P) or other test compound to that of control samples. The EC50 (nM) was determined by a sigmoidal dose-response calculation (Prism 3.0, GraphPad Software Inc.).

[11] = test system: human hepatocellular carcinoma cell line SNU398; assay: Caspase cascade activation (EC50), SNU398; conditions: Homo sapiens, SNU-398; SNU398 cells; caspase cascade activation; read-out: caspase potency (EC50) SNU398
Method in brief: as §4

[12] = test system: human lymphoma cell line Raji; assay: Caspase cascade activation (EC50), Raji; conditions: Homo sapiens, RAJI cells, read-out: caspase potency (EC50) RAJI
Method in brief: as §4

[13] = test system: human leukemia cell line K562; assay: Inhibition of cell proliferation (GI50), K562; conditions: Homo sapiens; K562 cells, 48 h, CellTiter-Glo
Experimental: as §1, §2, §3

[14] = test system: human lymphoma cell line Raji; assay: Inhibition of cell proliferation (GI50), Raji; conditions: Homo sapiens; Raji cells, 48 h, CellTiter-Glo
Experimental: as §1, §2, §3

| GI50 [1] [nM] | GI50 [2] [nM] | EC50 [3] [µM] | GI50 [4] [nM] | EC50 [5] [µM] | GI50 [6] [nM] | EC50 [7] [µM] | GI50 ([1]; Homo sapiens) [nM] | EC50 [8] [µM] | GI50 [9] [nM] | EC50 ([3]; Homo sapiens) [µM] | EC50 [10] [µM] | EC50 [11] [µM] | EC50 [12] [µM] | GI50 [13] [nM] | GI50 [14] [nM] | GI50 ([2]; Homo sapiens) [nM] | GI50 ([4]; Homo sapiens) [nM] | Molecule |
| --- | --- | --- | --- | --- | --- | --- | --- | --- | --- | --- | --- | --- | --- | --- | --- | --- | --- | --- |
| 1150 | 2000 | 0.609 | 936 |  |  |  |  |  |  |  |  |  |  |  |  |  |  | 3-(3,5-Dimethoxyphenyl-4-(2-dimethylaminoethoxy)phenyl)-6-(4-methylphenyl)-7H-[1,2,4]triazolo[3,4-b][1,3,4]thiadiazine [Example 16] |
|  |  |  |  | 0.27 | 108 | 0.431 | 396 | 0.331 | 254 | 2.71 | 1.25 | 0.266 | 0.455 | 267 | 133 |  |  | CCOc1ccc(C2=Nn3c(nnc3-c3ccc(C)cc3)SC2)cc1 [B, 3-(4-Methylphenyl)-6-(4-ethoxyphenyl)-7H-[1,2,4]triazolo[3,4-b][1,3,4]thiadiazine] |
|  |  |  |  | 0.029 |  | 0.046 | 21 | 0.031 |  | 0.118 |  | 0.024 | 0.05 |  |  | 25 | 15 | COc1cc(-c2nnc3n2N=C(c2ccc(C)cc2)CS3)cc(OC)c1OC [Example 17, 3-(3,4,5-Trimethoxyphenyl)-6-(4-methylphenyl)-7H-[1,2,4]triazolo[3,4-b][1,3,4]thiadiazine] |
|  |  |  |  | 0.049 |  | 0.065 | 129 |  | 29 | 0.163 |  | 0.041 |  |  |  | 50 | 137 | COc1ccccc1-c1nnc2n1N=C(c1ccc(C)c(C)c1)CS2 [Example 40, 3-(2-Methoxyphenyl)-6-(3,4-dimethylphenyl)-7H-[1,2,4]triazolo[3,4-b][1,3,4]thiadiazine] |
|  |  |  |  | 0.182 |  | 0.289 | 1270 |  | 208 | 0.422 |  | 0.18 |  |  |  | 117 | 261 | COc1cc(C)ccc1C1=Nn2c(nnc2-c2ccccc2OC)SC1 [Example 41, 6-(2-Methoxy-4-methylphenyl)-3-(2-methoxyphenyl)-7H-[1,2,4]triazolo[3,4-b][1,3,4]thiadiazine] |
|  |  |  |  | > 10 |  | > 10 | 5000 | 2.59 |  | 2.12 |  | > 10 | 5.4 |  |  | 4600 | 5000 | CCOc1cccc(-c2nnc3n2N=C(c2ccc4c(c2)OCO4)CS3)c1 [Example E1, 3-(3-Ethoxyphenyl)-6-(3,4-methylenedioxyphenyl)-7H-[1,2,4]triazolo[3,4-b][1,3,4]thiadiazine] |
|  |  |  |  | 0.08 | 33 | 0.1 | 359 | 0.065 | 112 | 0.503 |  | 0.061 | 0.121 | 37 | 587 |  |  | COc1ccc(C2=Nn3c(nnc3-c3cccc(C)c3)SC2)cc1 [Example Q2] |
|  |  |  |  | 0.129 | 100 | 0.168 | 1100 | 0.127 | 256 | 0.537 |  | 0.086 | 0.19 | 72 | 730 |  |  | COc1ccc(C2=Nn3c(nnc3-c3ccc(C)cc3)SC2)cc1 [Example U2] |
|  |  |  |  | 0.25 | 346 | 0.268 | 1130 | 0.256 | 975 | 0.312 |  | 0.195 | 0.444 | 400 | 1260 |  |  | COc1ccc(C2=Nn3c(nnc3-c3n[nH]c4c3CCC4)SC2)cc1 [Example V2] |
|  |  |  |  | 0.062 | 17 | 0.126 | 141 | 0.093 | 24 | 1.34 | 0.339 | 0.092 | 0.141 | 27 | 62 |  |  | CCOc1ccc(C2=Nn3c(nnc3-c3ccccc3C)SC2)cc1 [L, 3-(2-Methylphenyl)-6-(4-ethoxyphenyl)-7H-[1,2,4]triazolo[3,4-b][1,3,4]thiadiazine] |
|  |  |  |  | 0.122 | 17 | 0.242 | 121 | 0.077 | 117 | 0.557 | 0.553 | 0.115 | 0.109 | 42 | 89 |  |  | COc1ccc(C2=Nn3c(nnc3-c3cccc(Cl)c3)SC2)cc1 [R, 3-(3-Chlorophenyl)-6-(4-methoxyphenyl)-7H-[1,2,4]triazolo[3,4-b][1,3,4]thiadiazine] |
